This assay has as its target T1, Chk1 (Homo sapiens, UniProt O14757).
T1 construct: purchased Upstate Biotechnology
T1 sequence (O14757 1-476): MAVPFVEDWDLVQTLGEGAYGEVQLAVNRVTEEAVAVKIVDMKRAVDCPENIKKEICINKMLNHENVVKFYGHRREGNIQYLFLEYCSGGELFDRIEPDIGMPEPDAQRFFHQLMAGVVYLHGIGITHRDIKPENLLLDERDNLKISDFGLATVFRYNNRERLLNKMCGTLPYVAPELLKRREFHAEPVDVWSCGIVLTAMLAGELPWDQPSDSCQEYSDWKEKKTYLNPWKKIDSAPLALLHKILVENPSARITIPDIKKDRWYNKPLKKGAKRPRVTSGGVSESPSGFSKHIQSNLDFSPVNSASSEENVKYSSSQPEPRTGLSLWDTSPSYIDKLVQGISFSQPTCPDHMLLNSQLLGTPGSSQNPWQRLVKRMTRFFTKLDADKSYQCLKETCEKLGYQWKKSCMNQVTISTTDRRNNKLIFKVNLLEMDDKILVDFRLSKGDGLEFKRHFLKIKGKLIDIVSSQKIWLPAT
The experiment in a line: Chk1 kinase assay: incorporation of γ-33P ATP into immobilized myelin basic protein. It counts as biochemical. As to conditions: read-out: Chk1 IC50. In short, it runs like this: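 MBP coated on plates (20 μg/ml) was phosphorylated by Chk1 (10 nM) or Chk2 (20 nM) with γ-33P ATP plus 10 μM (Chk1) or 30 μM (Chk2) unlabeled ATP, 1 h at room temperature, 1% DMSO. Bound radioactivity was counted by scintillation after washing; IC50 or Ki derived from fitted rate data.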

For `CNC(=O)c1nc(-c2cccc(C(=O)NCc3ccc(I)cc3)c2)cnc1N` [Example 302, 3-amino-6-[3-({[(4-iodophenyl)methyl]amino}carbonyl)phenyl]-N-methylpyrazine-2-carboxamide], the IC50 is less than 50 nM.

Turning to `CNC(=O)c1nc(-c2cccc(C(=O)NCc3ccc(C)c(Cl)c3)c2)cnc1N` [Example 303, 3-amino-6-[3-({[(3-chloro-4-methylphenyl)methyl]amino}carbonyl)phenyl]-N-methylpyrazine-2-carboxamide], the IC50 fell in the range of 50 to 1000 nM.

Consider `CNC(=O)c1nc(-c2cccc(C(=O)NCc3ccc(Br)cc3)c2)cnc1N` [Example 304, 3-amino-6-[3-({[(4-bromophenyl)methyl]amino}carbonyl)phenyl]-N-methylpyrazine-2-carboxamide], for which the IC50 fell in the range of 50 to 1000 nM.

Regarding `CNC(=O)c1nc(-c2cccc(C(=O)NCc3ccccc3Br)c2)cnc1N` [Example 305, 3-amino-6-[3-({[(2-bromophenyl)methyl]amino}carbonyl)phenyl]-N-methylpyrazine-2-carboxamide], the IC50 lay in the range of 50 to 1000 nM.

For the compound `CNC(=O)c1nc(-c2cccc(CNC(=O)c3ccccc3)c2)cnc1N` [Example 308, 3-amino-N-methyl-6-(3-{[(phenylcarbonyl)amino]methyl}phenyl)pyrazine-2-carboxamide], the IC50 fell in the range of 50 to 1000 nM.

As for `CNC(=O)c1nc(-c2cccc(CNC(=O)c3ccc(Cl)cc3)c2)cnc1N` [Example 309, 3-amino-6-[3-({[(4-chlorophenyl)carbonyl]amino}methyl)phenyl]-N-methylpyrazine-2-carboxamide], the IC50 was 50 to 1000 nM.

Turning to `CNC(=O)c1nc(-c2cccc(CNC(=O)c3cc(F)ccc3F)c2)cnc1N` [Example 310, 3-amino-6-[3-({[(2,5-difluorophenyl)carbonyl]amino}methyl)phenyl]-N-methylpyrazine-2-carboxamide], the IC50 lay within 50 to 1000 nM.

With `CNC(=O)c1nc(-c2cccc(CNC(=O)c3ccc4ccccc4c3)c2)cnc1N` [Example 311, 3-amino-N-methyl-6-(3-{[(naphthalen-2-ylcarbonyl)amino]methyl}phenyl)pyrazine-2-carboxamide], the IC50 was in the range of 50 to 1000 nM.

On to `CNC(=O)c1nc(-c2cccc(CSCc3ccccc3)c2)cnc1N` [Example 312, 3-amino-N-methyl-6-(3-{[(phenylmethyl)thio]methyl}phenyl)pyrazine-2-carboxamide], for which the IC50 lay within 50 to 1000 nM.

With `CNC(=O)c1nc(-c2cccc(CS(=O)(=O)Cc3ccccc3)c2)cnc1N` [Example 313, 3-amino-N-methyl-6-(3-{[(phenylmethyl)sulfonyl]methyl}phenyl)pyrazine-2-carboxamide], the 50% inhibitory concentration (IC50) lay in the range of 50 to 1000 nM.

Consider `CNC(=O)c1nc(-c2cccc(COCc3ccccc3)c2)cnc1N` [Example 314, 3-amino-N-methyl-6-(3-{[(phenylmethyl)oxy]methyl}phenyl)pyrazine-2-carboxamide], for which the IC50 is 50 to 1000 nM.

In the case of `CNC(=O)c1nc(-c2cccc(CNCc3ccccc3)c2)cnc1N` [Example 315, 3-amino-N-methyl-6-(3-{[(phenylmethyl)amino]methyl}phenyl)pyrazine-2-carboxamide], the IC50 was in the range of 50 to 1000 nM.

As to `CNC(=O)c1nc(-c2cccc(C(=O)NCc3cc(F)c(F)c(F)c3)c2)cnc1N` [Example 316, 3-amino-N-methyl-6-[3-({[(3,4,5-trifluorophenyl)methyl]amino}carbonyl)phenyl]pyrazine-2-carboxamide], the IC50 lay within 50 to 1000 nM.

On to `CNC(=O)c1nc(-c2cccc(NC(=O)OCC3c4ccccc4-c4ccccc43)c2)cnc1N` [Example 317, 9H-fluoren-9-ylmethyl (3-{5-amino-6-[(methylamino)carbonyl]pyrazin-2-yl}phenyl)carbamate], for which the half-inhibitory concentration (IC50) was 1000 to 10000 nM.

Consider `CNC(=O)c1nc(-c2cccc(NC(=O)OCc3ccccc3)c2)cnc1N` [Example 318, phenylmethyl (3-{5-amino-6-[(methylamino)carbonyl]pyrazin-2-yl}phenyl)carbamate], for which the half-inhibitory concentration (IC50) lay in the range of 50 to 1000 nM.

Regarding `CCOC(=O)Nc1cccc(-c2cnc(N)c(C(=O)NC)n2)c1` [Example 319, ethyl (3-{5-amino-6-[(methylamino)carbonyl]pyrazin-2-yl}phenyl)carbamate], the IC50 was in the range of 50 to 1000 nM.

Take `CNC(=O)c1nc(-c2cccc(CNC(=O)c3ccc(Cl)c(Cl)c3)c2)cnc1N` [Example 320, 3-amino-6-[3-({[(3,4-dichlorophenyl)carbonyl]amino}methyl)phenyl]-N-methylpyrazine-2-carboxamide]: the IC50 was in the range of 50 to 1000 nM.

On to `CNC(=O)c1nc(-c2cccc(NC(=O)OC(C)(C)C)c2)cnc1N` [Example 321, 1,1-dimethylethyl (3-{5-amino-6-[(methylamino)carbonyl]pyrazin-2-yl}phenyl)carbamate], for which the half-inhibitory concentration (IC50) fell in the range of 1000 to 10000 nM.

`CNC(=O)c1nc(-c2cccc(NC(=O)O[C@@H]3C[C@H](C)CC[C@H]3C(C)C)c2)cnc1N` [Example 322, (1R,2S,5R)-5-methyl-2-(1-methylethyl)cyclohexyl (3-{5-amino-6-[(methylamino)carbonyl]pyrazin-2-yl}phenyl)carbamate]: the half-inhibitory concentration (IC50) was not below 10000 nM.

Regarding `CNC(=O)c1nc(-c2cccc(C(=O)NCc3ccc(O)cc3)c2)cnc1N` [Example 323, 3-amino-6-[3-({[(4-hydroxyphenyl)methyl]amino}carbonyl)phenyl]-N-methylpyrazine-2-carboxamide], the concentration for half-maximal inhibition (IC50) was in the range of 50 to 1000 nM.

In the case of `CNC(=O)c1nc(-c2cccc(C(=O)NCc3ccc(OCCN4CCOCC4)cc3)c2)cnc1N` [Example 324, 3-amino-N-methyl-6-(3-{[({4-[(2-morpholin-4-ylethyl)oxy]phenyl}methyl)amino]carbonyl}phenyl)pyrazine-2-carboxamide], the IC50 lay within 50 to 1000 nM.

For the compound `CNC(=O)c1nc(-c2cccc(C(=O)NCc3ccccc3OC)c2)cnc1N` [Example 325, 3-amino-N-methyl-6-{3-[({[2-(methyloxy)phenyl]methyl}amino)carbonyl]phenyl}pyrazine-2-carboxamide], the IC50 is 50 to 1000 nM.

As to `CNC(=O)c1nc(-c2cccc(C(=O)NCc3cccc(O)c3)c2)cnc1N` [Example 326, 3-amino-6-[3-({[(3-hydroxyphenyl)methyl]amino}carbonyl)phenyl]-N-methylpyrazine-2-carboxamide], the IC50 lay in the range of 50 to 1000 nM.

Take `CNC(=O)c1nc(-c2cccc(C(=O)NCc3ccccc3O)c2)cnc1N` [Example 327, 3-amino-6-[3-({[(2-hydroxyphenyl)methyl]amino}carbonyl)phenyl]-N-methylpyrazine-2-carboxamide]: the IC50 is 50 to 1000 nM.

Take `CNC(=O)c1nc(-c2cccc(C(=O)NNc3ccccc3)c2)cnc1N` [Example 328, 3-amino-N-methyl-6-{3-[(2-phenylhydrazino)carbonyl]phenyl}pyrazine-2-carboxamide]: the 50% inhibitory concentration (IC50) is less than 50 nM.

`CNC(=O)c1nc(-c2cccc(CNC(=O)Cc3ccccc3)c2)cnc1N` [Example 330, 3-amino-N-methyl-6-(3-{[(phenylacetyl)amino]methyl}phenyl)pyrazine-2-carboxamide]: the IC50 lay in the range of 50 to 1000 nM.

Consider `CNC(=O)c1nc(-c2cccc(CNC(=O)Cc3ccc(Cl)cc3)c2)cnc1N` [Example 331, 3-amino-6-[3-({[(4-chlorophenyl)acetyl]amino}methyl)phenyl]-N-methylpyrazine-2-carboxamide], for which the 50% inhibitory concentration (IC50) fell in the range of 50 to 1000 nM.

These data come from US7704995B2 (Exelixis, Inc., priority 2003, dated 2010).
